These results are taken from patent US8968453B2, “Anthrapyridone sulfonic acid compounds and their preparation methods and applications” (Zhuhai Ninestar Management Co., Ltd., priority 2011, dated 2015).

Common to all, as to format: physicochemical
Series [1] in a line: Printed images light resistance test with xenon lamp. The conditions noted are these: grade of color difference ΔE; ink with 6 portions dye on glossy photo paper; xenon lamp 0.36 W/m^2, 50 h, 60% RH, 24° C. The text has this: (§1) Prepare the ink composition of Table 8 with the product obtained in Embodiment 1-11 as the coloring agent, and filter the ink composition with 0.45 μm membrane filter to obtain the magenta ink composition of the present invention. Add ion exchange water and triethanolamine to adjust the pH value of the ink composition to 8-10 and the weight to 100 portions. By the same methods, prepare ink compositions with control sulfonic-group-free anthrone dyes Dye1 and Dye2, hydrolytic derivatives of commercial dye C.I. reactive red 180 (reactive red 180 for short) and C.I. direct red 227 for comparison.
(§2) Use an ink-jet printer (Epson 270 manufactured by Epson Company), glossy photo paper (Epson) and the above described ink compositions for ink-jet printing.
(1) Printed Images Light Resistance Test with Xenon Lamp
Irradiate the printed glossy photo paper manufactured by Canon and Epson with Xenon-lamp Weathering Test Chamber ZG-P (manufactured by China Surui Company) at 60% RH and 24° C. with illuminance of 0.36 W/m^2 for 50 h to test the color difference (ΔE) before and after the test. The color difference (ΔE) is calculated from the differences of values of L*, a*, b* before and after the test in the above described color measurement system (Unterlab) by the followings formula: ΔE=((difference of L*)^2+(difference of a*)^2+(difference of b*)^2)^1/2.
Three grades will be divided for the evaluation based on the following benchmark: • ΔE<10 ∘ • ΔE<20 Δ • ΔE>20 x

The nature of series [2]: Gas (ozone) resistance of the printed images. The conditions noted are these: grade of color difference ΔE; ink with 6 portions dye on glossy photo paper; 40 ppm ozone, 60% RH, 24° C. The text has this: Prepare the ink composition of Table 8 with the product obtained in Embodiment 1-11 as the coloring agent, and filter the ink composition with 0.45 μm membrane filter to obtain the magenta ink composition of the present invention. Add ion exchange water and triethanolamine to adjust the pH value of the ink composition to 8-10 and the weight to 100 portions. By the same methods, prepare ink compositions with control sulfonic-group-free anthrone dyes Dye1 and Dye2, hydrolytic derivatives of commercial dye C.I. reactive red 180 (reactive red 180 for short) and C.I. direct red 227 for comparison. Use an ink-jet printer (Epson 270 manufactured by Epson Company), glossy photo paper (Epson) and the above described ink compositions for ink-jet printing. (2) Gas Resistance of the Printed Images Place the printed images in the Ozone Weathering Test Chamber (manufactured by China Surui Company) at 60% RH, 24° C. and 40 ppm ozone. Calculated the color difference (ΔE) before and after the test by the same method as described in (1) above and evaluate it in 3 grades based on the following benchmark: • ΔE<10 ∘ • ΔE<20 Δ • ΔE>20 x

Series [3] can be described thus: Wet resistance of the printed images. On the set-up: key: No bleeding ∘; Slight bleeding Δ; Notable bleeding x. The conditions noted are these: bleeding judged by bare eyes; 50° C., 90% RH, 168 h.
Text: as §1, §2
(3) Wet Resistance of the Printed Images
Place the printed images in the Constant Temperature and Humidity Chamber (manufactured by China Surui Company) at 50° C. and 90% RH for 168 h; judge the bleeding of the ink by bare eyes before and after the test and evaluate it in 3 grades based on the following benchmark: • No bleeding ∘ • Slight bleeding Δ • Notable bleeding x

Series [4] is described as follows: Evaluation of solubility and solution stability. On the set-up: key: No precipitation ∘; Slight precipitation Δ; Notable x. Conditions: 20 portions dye, 70 portions water, 10 portions ethylene glycol; 50° C. 7 d, then 0° C. 7 d; precipitation on filtering. The protocol:
(D) Evaluation of Solubility and Solution Stability
Heat and dissolve the system of 20 portions of dyes, 70 portions of water and 10 portions of ethylene glycol; after the solution cools down, store it airtight at a constant temperature of 50° C. for 7 d; cool it down and store it at 0° C. for 7 d; filter the solution and evaluate it in 3 grades based on the following benchmark: • No precipitation ∘ • Slight precipitation Δ • Notable x

The structures appear in SMILES notation.

Regarding `O=C(O)c1cc(Oc2nc(Nc3cc(Nc4cc(S(=O)(=O)O)c5[nH]c(=O)c(C(=O)c6cccc(S(=O)(=O)O)c6)c6c5c4C(=O)c4ccccc4-6)c(S(=O)(=O)O)cc3S(=O)(=O)O)nc(N(CCO)CCO)n2)cc(C(=O)O)c1` [Dye D2], the “UV resistance of printed images” value in series [1] is on record as “∘ (ΔE<10 ∘)”. In series [2], the “Ozone resistance of printed images” value is given as “∘ (ΔE<10 ∘)”. Also, in series [3], the “Water resistance of printed images” value is listed as “∘”. Further, the “Solubility and stability of dyes in aqueous solvent system” value (“Solubility and stability of dyes” for short) in series [4] is reported as “∘”.
For the molecule `CCN(CC)CCS(=O)(=O)c1ccc(S(=O)(=O)O)c(Nc2cc(S(=O)(=O)O)c3[nH]c(=O)c(C(=O)c4cccc(S(=O)(=O)O)c4)c4c3c2C(=O)c2ccccc2-4)c1` [Dye B2], the “UV resistance of printed images” value in series [1] is on record as “∘ (ΔE<10 ∘)”. In series [2], the “Ozone resistance of printed images” value is given as “∘ (ΔE<10 ∘)”. For the same molecule, in series [3], the “Water resistance of printed images” value is given as “∘”. In series [4], the “Solubility and stability of dyes” value was “∘”.
Regarding `CCN(CC)CCS(=O)(=O)c1cc(Nc2cc(S(=O)(=O)O)c3[nH]c(=O)c(C(=O)c4cccc(S(=O)(=O)O)c4)c4c3c2C(=O)c2ccccc2-4)c(S(=O)(=O)O)cc1S(=O)(=O)O` [Dye B4], the “UV resistance of printed images” value in series [1] is “∘ (ΔE<10 ∘)”. The “Ozone resistance of printed images” value in series [2] was “∘ (ΔE<10 ∘)”. The “Water resistance of printed images” value in series [3] is reported as “∘”. For the same molecule, the “Solubility and stability of dyes” value in series [4] was “∘”.
Regarding `CCN(CC)CCS(=O)(=O)c1ccc(S(=O)(=O)O)c(Nc2ccc3[nH]c(=O)c(C(=O)c4cccc(S(=O)(=O)O)c4)c4c3c2C(=O)c2ccccc2-4)c1` [Dye1, reference compound], the “UV resistance of printed images” value in series [1] is “Δ (ΔE<20 Δ)”. In series [2], the “Ozone resistance of printed images” value is on record as “Δ (ΔE<20 Δ)”. For the same molecule, the “Water resistance of printed images” value in series [3] is on record as “∘”. Also, the “Solubility and stability of dyes” value in series [4] was “Δ”.
With `CN(c1nc(Oc2cc(C(=O)O)cc(C(=O)O)c2)nc(N(CCO)CCO)n1)c1cc(S(=O)(=O)O)c(Nc2cc(S(=O)(=O)O)c3[nH]c(=O)c(C(=O)c4cccc(S(=O)(=O)O)c4)c4c3c2C(=O)c2ccccc2-4)cc1S(=O)(=O)O` [Dye D3], the “UV resistance of printed images” value in series [1] is “∘ (ΔE<10 ∘)”. Moreover, the “Ozone resistance of printed images” value in series [2] is recorded as “Δ (ΔE<20 Δ)”. In series [3], the “Water resistance of printed images” value is reported as “∘”. The “Solubility and stability of dyes” value in series [4] is recorded as “∘”.
Take `CC(=O)Nc1cc(Nc2cc(S(=O)(=O)O)c3[nH]c(=O)c(C(=O)c4cccc(S(=O)(=O)O)c4)c4c3c2C(=O)c2ccccc2-4)c(S(=O)(=O)O)cc1S(=O)(=O)O` [Dye C5]: in series [1], the “UV resistance of printed images” value is reported as “∘ (ΔE<10 ∘)”. Also, in series [2], the “Ozone resistance of printed images” value was “∘ (ΔE<10 ∘)”. In addition, the “Water resistance of printed images” value in series [3] is “∘”. Besides, the “Solubility and stability of dyes” value in series [4] is given as “∘”.
`O=C(c1cccc(S(=O)(=O)O)c1)c1c2c3c(c(Nc4cc(S(=O)(=O)CCSCCCS(=O)(=O)O)c(S(=O)(=O)O)cc4S(=O)(=O)O)cc(S(=O)(=O)O)c3[nH]c1=O)C(=O)c1ccccc1-2` [Dye B3]: in series [1], the “UV resistance of printed images” value is “∘ (ΔE<10 ∘)”. The “Ozone resistance of printed images” value in series [2] was “∘ (ΔE<10 ∘)”. Further, in series [3], the “Water resistance of printed images” value is “∘”. Further, in series [4], the “Solubility and stability of dyes” value is given as “∘”.
Consider `O=S(=O)([O-])c1cc(Nc2nc(Nc3ccc(/C=C/c4ccc(Nc5nc(Nc6cc(S(=O)(=O)[O-])cc7cc(S(=O)(=O)[O-])c(N=Nc8ccccc8)c(O)c67)nc(N6CCOCC6)n5)cc4S(=O)(=O)[O-])c(S(=O)(=O)[O-])c3)nc(N3CCOCC3)n2)c2c(O)c(N=Nc3ccccc3)c(S(=O)(=O)[O-])cc2c1.[Na+].[Na+].[Na+].[Na+].[Na+].[Na+]` [C.I. direct red 227, reference compound], for which, in series [1], the “UV resistance of printed images” value is “x (ΔE>20 x)”. In addition, the “Ozone resistance of printed images” value in series [2] is listed as “x (ΔE>20 x)”. Besides, the “Water resistance of printed images” value in series [3] is “Δ”. In addition, the “Solubility and stability of dyes” value in series [4] is “Δ”.
With `O=C(c1cccc(S(=O)(=O)O)c1)c1c2c3c(c(Nc4ccc(S(=O)(=O)O)cc4S(=O)(=O)O)cc(S(=O)(=O)O)c3[nH]c1=O)C(=O)c1ccccc1-2` [Dye C1], the “UV resistance of printed images” value in series [1] was “∘ (ΔE<10 ∘)”. In series [2], the “Ozone resistance of printed images” value was “∘ (ΔE<10 ∘)”. Besides, the “Water resistance of printed images” value in series [3] is on record as “∘”. The “Solubility and stability of dyes” value in series [4] is “∘”.
Take `CC(=O)Nc1cc(Nc2ccc3[nH]c(=O)c(C(=O)c4cccc(S(=O)(=O)O)c4)c4c3c2C(=O)c2ccccc2-4)c(S(=O)(=O)O)cc1S(=O)(=O)O` [Dye2, reference compound]: the “UV resistance of printed images” value in series [1] is given as “Δ (ΔE<20 Δ)”. The “Ozone resistance of printed images” value in series [2] is “Δ (ΔE<20 Δ)”. Besides, in series [3], the “Water resistance of printed images” value was “∘”. In addition, the “Solubility and stability of dyes” value in series [4] is “Δ”.
Consider `Cc1ccc(S(=O)(=O)Nc2cc(Nc3cc(S(=O)(=O)O)c4[nH]c(=O)c(C(=O)c5cccc(S(=O)(=O)O)c5)c5c4c3C(=O)c3ccccc3-5)c(S(=O)(=O)O)cc2S(=O)(=O)O)cc1` [Dye D4], for which, in series [1], the “UV resistance of printed images” value was “∘ (ΔE<10 ∘)”. In series [2], the “Ozone resistance of printed images” value was “Δ (ΔE<20 Δ)”. In addition, the “Water resistance of printed images” value in series [3] was “∘”. Further, in series [4], the “Solubility and stability of dyes” value is on record as “Δ”.
Turning to `O=C(c1cccc(S(=O)(=O)O)c1)c1c2c3c(c(Nc4cc(S(=O)(=O)CCSCCCS(=O)(=O)O)ccc4S(=O)(=O)O)cc(S(=O)(=O)O)c3[nH]c1=O)C(=O)c1ccccc1-2` [Dye B1], in series [1], the “UV resistance of printed images” value was “∘ (ΔE<10 ∘)”. Further, the “Ozone resistance of printed images” value in series [2] was “∘ (ΔE<10 ∘)”. Moreover, the “Water resistance of printed images” value in series [3] is “∘”. Further, the “Solubility and stability of dyes” value in series [4] is “∘”.
As for `O=C(O)c1cc(Oc2nc(Nc3cc(Nc4cc(S(=O)(=O)O)c5[nH]c(=O)c(C(=O)c6cccc(S(=O)(=O)O)c6)c6c5c4C(=O)c4ccccc4-6)c(S(=O)(=O)O)cc3S(=O)(=O)O)nc(Oc3cc(C(=O)O)cc(C(=O)O)c3)n2)cc(C(=O)O)c1` [Dye D1], the “UV resistance of printed images” value in series [1] is reported as “∘ (ΔE<10 ∘)”. Further, the “Ozone resistance of printed images” value in series [2] is listed as “∘ (ΔE<10 ∘)”. The “Water resistance of printed images” value in series [3] is “∘”. Also, in series [4], the “Solubility and stability of dyes” value is listed as “∘”.
